In patent publication US8618139B2, “Oxadiazole derivatives as sphingosine 1-phosphate (S1P) receptor modulators” (Allergan, Inc., priority 2010, dated 2013):

Molecular target: T1, human S1P1 receptor (Homo sapiens, UniProt P21453)
T1 construct: expressed in transfected cells; membranes used
Assay: GTP γ35S binding assay for S1P1 activity
Assay type: biochemical
Conditions: activity potency from GTP γ35S binding; membranes, test compounds 0.08 to 5,000 nM, 30 min at 25° C.
Protocol: Compounds were synthesized and tested for S1P1 activity using the GTP γ^35S binding assay. These compounds may be assessed for their ability to activate or block activation of the human S1P1 receptor in cells stably expressing the S1P1 receptor.
GTP γ^35S binding was measured in the medium containing (mM) HEPES 25, pH 7.4, MgCl2 10, NaCl 100, dithitothreitol 0.5, digitonin 0.003%, 0.2 nM GTP γ^35S, and 5 μg membrane protein in a volume of 150 μl. Test compounds were included in the concentration range from 0.08 to 5,000 nM unless indicated otherwise. Membranes were incubated with 100 μM 5′-adenylylimmidodiphosphate for 30 min, and subsequently with 10 μM GDP for 10 min on ice. Drug solutions and membrane were mixed, and then reactions were initiated by adding GTP γ^35S and continued for 30 min at 25° C. Reaction mixtures were filtered over Whatman GF/B filters under vacuum, and washed three times with 3 mL of ice-cold buffer (HEPES 25, pH7.4, MgCl2 10 and NaCl 100). Filters were dried and mixed with scintillant, and counted for ^35S activity using a β-counter. Agonist-induced GTP γ^35S binding was obtained by subtracting that in the absence of agonist. Binding data were analyzed using a non-linear regression method. In case of antagonist assay, the reaction mixture contained 10 nM S1P in the presence of test antagonist at concentrations ranging from 0.08 to 5000 nM.

T1 sequence (P21453 whole entry): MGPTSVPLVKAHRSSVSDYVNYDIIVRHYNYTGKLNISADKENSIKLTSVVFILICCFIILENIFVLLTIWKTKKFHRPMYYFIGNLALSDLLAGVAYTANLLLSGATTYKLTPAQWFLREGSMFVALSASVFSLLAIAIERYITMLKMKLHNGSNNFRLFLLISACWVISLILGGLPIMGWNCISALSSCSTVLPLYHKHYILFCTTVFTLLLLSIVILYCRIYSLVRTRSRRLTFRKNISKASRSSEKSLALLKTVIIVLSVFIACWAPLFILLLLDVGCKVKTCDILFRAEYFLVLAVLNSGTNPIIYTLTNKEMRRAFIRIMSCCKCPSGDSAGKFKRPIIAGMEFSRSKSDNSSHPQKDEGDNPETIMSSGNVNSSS

CNc1ncccc1-c1noc(C(Nc2ccc(C)c(C)c2)c2cccc(Cl)c2)n1 (stereo not shown) [Compound 1, 3-(5-((3-chlorophenyl)((3,4-dimethylphenyl)amino)methyl)-1,2,4-oxadiazol-3-yl)-N-methylpyridin-2-amine]
EC50: 336 nM

CNc1ncccc1-c1noc(C(Sc2ccc(C)c(C)c2)c2cccc(Br)c2)n1 (stereo not shown) [Compound 2, 3-(5-((3-bromophenyl)((3,4-dimethylphenyl)thio)methyl)-1,2,4-oxadiazol-3-yl)-N-methylpyridin-2-amine]
EC50: 650 nM

CNc1ncccc1-c1noc(C(Sc2ccc(C)c(C)c2)c2cccc(F)c2)n1 (stereo not shown) [Compound 3, 3-(5-(((3,4-dimethylphenyl)thio)(3-fluorophenyl)methyl)-1,2,4-oxadiazol-3-yl)-N-methylpyridin-2-amine]
EC50: 368 nM

CNc1ncccc1-c1noc(C(Sc2ccc(C)c(C)c2)c2ccc(Cl)c(Cl)c2)n1 (stereo not shown) [Compound 4, 3-(5-((3,4-dichlorophenyl)((3,4-dimethylphenyl)thio)methyl)-1,2,4-oxadiazol-3-yl)-N-methylpyridin-2-amine]
EC50: 638 nM

CNc1ncccc1-c1noc(C(Sc2ccc(C)c(C)c2)c2cccc(Cl)c2)n1 (stereo not shown) [Compound 5, 3-(5-((3-chlorophenyl)((3,4-dimethylphenyl)thio)methyl)-1,2,4-oxadiazol-3-yl)-N-methylpyridin-2-amine]
EC50: 214 nM

CNc1ncccc1-c1noc(C(SC2CCCCC2)c2cccc(C(F)(F)F)c2)n1 (stereo not shown) [Compound 6, 3-(5-((cyclohexylthio)(3-(trifluoromethyl)phenyl)methyl)-1,2,4-oxadiazol-3-yl)-N-methylpyridin-2-amine]
EC50: 3010 nM

CNc1ncccc1-c1noc(C(Oc2ccc(C)c(C)c2)c2cccc(Cl)c2)n1 (stereo not shown) [Compound 7, 3-(5-((3-chlorophenyl)(3,4-dimethylphenoxy)methyl)-1,2,4-oxadiazol-3-yl)-N-methylpyridin-2-amine]
EC50: 1540 nM

CNc1ncccc1-c1noc(C(Sc2ccc(C)c(C)c2)c2ccccc2Cl)n1 (stereo not shown) [Compound 9, 3-(5-((2-chlorophenyl)((3,4-dimethylphenyl)thio)methyl)-1,2,4-oxadiazol-3-yl)-N-methylpyridin-2-amine]
EC50: 716 nM

CNc1ncccc1-c1noc(C(Nc2ccc(C)c(C)c2)c2ccccc2)n1 (stereo not shown) [Compound 10, 3-(5-(((3,4-dimethylphenyl)amino)(phenyl)methyl)-1,2,4-oxadiazol-3-yl)-N-methylpyridin-2-amine]
EC50: 2390 nM

CNc1ncccc1-c1noc(C(Sc2ccoc2C)c2cccc(Cl)c2)n1 (stereo not shown) [Compound 13, 3-(5-((3-chlorophenyl)((2-methylfuran-3-yl)thio)methyl)-1,2,4-oxadiazol-3-yl)-N-methylpyridin-2-amine]
EC50: 1380 nM

CNc1ncccc1-c1noc(C(Oc2ccc(C)c(C)c2)c2ccc(Cl)cc2)n1 (stereo not shown) [Compound 15, 3-(5-((4-chlorophenyl)(3,4-dimethylphenoxy)methyl)-1,2,4-oxadiazol-3-yl)-N-methylpyridin-2-amine]
EC50: 509 nM

CNc1ncccc1-c1noc(C(Sc2ccc(C)cc2C)c2ccc(Cl)cc2)n1 (stereo not shown) [Compound 16, 3-(5-((4-chlorophenyl)((2,4-dimethylphenyl)thio)methyl)-1,2,4-oxadiazol-3-yl)-N-methylpyridin-2-amine]
EC50: 2020 nM

CNc1ncccc1-c1noc(C(SC2CCCCC2)c2ccc(Cl)cc2)n1 (stereo not shown) [Compound 17, 3-(5-((4-chlorophenyl)(cyclohexylthio)methyl)-1,2,4-oxadiazol-3-yl)-N-methylpyridin-2-amine]
EC50: 550 nM

CNc1ncccc1-c1noc(C(Sc2ccc(C)cc2)c2ccc(Cl)cc2)n1 (stereo not shown) [Compound 18, 3-(5-((4-chlorophenyl)(p-tolylthio)methyl)-1,2,4-oxadiazol-3-yl)-N-methylpyridin-2-amine]
EC50: 3190 nM

CNc1ncccc1-c1noc(C(Sc2ccc(OC)cc2)c2ccc(Cl)cc2)n1 (stereo not shown) [Compound 20, 3-(5-((4-chlorophenyl)((4-methoxyphenyl)thio)methyl)-1,2,4-oxadiazol-3-yl)-N-methylpyridin-2-amine]
EC50: 2560 nM

CNc1ncccc1-c1noc(C(Oc2ccc(Cl)c(C)c2)c2ccc(Cl)cc2)n1 (stereo not shown) [Compound 21, 3-(5-((4-chloro-3-methylphenoxy)(4-chlorophenyl)methyl)-1,2,4-oxadiazol-3-yl)-N-methylpyridin-2-amine]
EC50: 2080 nM

CNc1ncccc1-c1noc(C(Sc2ccc(C)c(C)c2)c2ccc(Cl)cc2)n1 (stereo not shown) [Compound 22, 3-(5-((4-chlorophenyl)((3,4-dimethylphenyl)thio)methyl)-1,2,4-oxadiazol-3-yl)-N-methylpyridin-2-amine]
EC50: 241 nM

CNc1ncccc1-c1noc(C(Oc2ccc(Cl)cc2)c2ccc(Cl)cc2)n1 (stereo not shown) [Compound 23, 3-(5-((4-chlorophenoxy)(4-chlorophenyl)methyl)-1,2,4-oxadiazol-3-yl)-N-methylpyridin-2-amine]
EC50: 2050 nM

CNc1ncccc1-c1noc(C(Oc2ccc(C)cc2)c2ccc(Cl)cc2)n1 (stereo not shown) [Compound 26, 3-(5-((4-chlorophenyl)(p-tolyloxy)methyl)-1,2,4-oxadiazol-3-yl)-N-methylpyridin-2-amine]
EC50: 3120 nM

CNc1ncccc1-c1noc(C(Sc2ccccc2)c2ccccc2)n1 (stereo not shown) [Compound 27, N-methyl-3-(5-(phenyl(phenylthio)methyl)-1,2,4-oxadiazol-3-yl)pyridin-2-amine]
EC50: 1320 nM

CNc1ncccc1-c1noc(C(Oc2ccc(C)cc2)c2ccccc2Cl)n1 (stereo not shown) [Compound 30, 3-(5-((2-chlorophenyl)(p-tolyloxy)methyl)-1,2,4-oxadiazol-3-yl)-N-methylpyridin-2-amine]
EC50: 1920 nM

CNc1ncccc1-c1noc(C(Oc2ccc(C)cc2)c2cccc(Cl)c2)n1 (stereo not shown) [Compound 32, 3-(5-((3-chlorophenyl)(p-tolyloxy)methyl)-1,2,4-oxadiazol-3-yl)-N-methylpyridin-2-amine]
EC50: 1340 nM

CNc1ncccc1-c1noc(C(Oc2cccc(C)c2)c2ccccc2Cl)n1 (stereo not shown) [Compound 35, 3-(5-((2-chlorophenyl)(m-tolyloxy)methyll)-1,2,4-oxadiazol-3-yl)-N-methylpyridin-2-amine]
EC50: 2140 nM

CNc1ncccc1-c1noc(C(Oc2cccc(Cl)c2)c2ccccc2Cl)n1 (stereo not shown) [Compound 36, 3-(5-((3-chlorophenoxy)(2-chlorophenyl)methyl)-1,2,4-oxadiazol-3-yl)-N-methylpyridin-2-amine]
EC50: 2730 nM

CNc1ncccc1-c1noc(C(Oc2ccc(C)c(C)c2)c2ccccc2Cl)n1 (stereo not shown) [Compound 38, 3-(5-((2-chlorophenyl)(3,4-dimethylphenoxy)methyl)-1,2,4-oxadiazol-3-yl)-N-methylpyridin-2-amine]
EC50: 1650 nM
